Experimental data reported in ChEMBL document CHEMBL1135147, “8-Methoxyquinolines as PDE4 inhibitors” (Bioorg Med Chem Lett, 2002).

Legend:
[1] = molecular target: Phosphodiesterase 3 (Homo sapiens) (UniProt Q14432+Q13370); test: Inhibition of human platelet Phosphodiesterase 3 at 20 uM
Phosphodiesterase 4 [2] = molecular target: T1, Phosphodiesterase 4 (Homo sapiens, UniProt P27815+Q08499+Q07343+Q08493); test: Relative inhibition of PDE4 activity and rolipram binding; format: protein assay
Phosphodiesterase 4 [3] = molecular target: T1, Phosphodiesterase 4; test: Inhibition of Phosphodiesterase 4 from human U937 cells; format: cell-based; settings: u-937
Phosphodiesterase 4 [4] = molecular target: Phosphodiesterase 4 (Rattus norvegicus, UniProt P14270+P14646+P14644+P54748); test: Inhibition of rolipram binding to PDE4 in rat brain; format: tissue-based

Structure (SMILES)	inhibition [1] [%]	Ratio (Phosphodiesterase 4 [2])	IC50 (Phosphodiesterase 4 [3]) [nM]	IC50 (Phosphodiesterase 4 [4]) [nM]
CCc1cnc2c(OC)ccc(C(=O)Nc3c(Cl)cncc3Cl)c2c1	12	1.31	210	160
CON=C(C)c1ccc2c(C(=O)Nc3c(Cl)cncc3Cl)ccc(OC)c2n1	22	1.5	210	140
COc1ccc(C(=O)Nc2c(Cl)cncc2Cl)c2ccc(C(F)(F)F)nc12	15	0.66	51	77
COc1ccc(C(=O)Nc2c(Cl)cncc2Cl)c2ccc(C(C)=O)nc12	27	0.29	440	1500
COc1ccc(C(=O)Nc2c(Cl)cncc2Cl)c2cccnc12	10	–	–	–

Further lines, results first:

inhibition [1] [%]	Ratio (Phosphodiesterase 4 [2])	IC50 (Phosphodiesterase 4 [3]) [nM]	IC50 (Phosphodiesterase 4 [4]) [nM]	Structure (SMILES)
21	1.19	88	74	COc1ccc(C(=O)Nc2c(Cl)cncc2Cl)c2ccc(C)nc12
38	16.3	700	43	COc1ccc(C(=O)Nc2c(Cl)cncc2Cl)c2ccc(C#N)nc12
35	0.57	43	75.3	CCc1ccc2c(C(=O)Nc3c(Cl)cncc3Cl)ccc(OC)c2n1
30	0.22	180	790	COc1ccc(C(=O)Nc2c(Cl)cncc2Cl)c2ccc(C(C)O)nc12 (stereo not drawn)
